Test results published in PMC4102788, “Linking off-target kinase pharmacology to the differential cellular effects observed among PARP inhibitors” (Oncotarget, 2014).

How the values were obtained:
[1] = biological target: T1, human HIPK2 kinase (Homo sapiens, UniProt Q9H2X6); assay: Human HIPK2 kinase in vitro inhibition assay (Cerep, LANCE); format: biochemical; details: human recombinant enzyme, 10 µM ATP
T1 construct: purchased Cerep (CRO that ran the assay) 2915 (781-H2)
Description: (§1) Rucaparib, veliparib and olaparib were purchased from Selleckchem. Kinase in vitro assays were perfomed at Cerep (www.cerep.fr) by measuring the phosphorylation of appropriate peptide substrates by human recombinant enzymes and using FRET as a detection method (a detailed description of each kinase assay is available in online supplementary data).
Human HIPK2 kinase in vitro inhibition assay
All details for the HIPK2 in vitro assay can be consulted in the Cerep Catalogue available online under references 2915 (781-H2): http://www.cerep.fr/cerep/users/pages/catalog/Affiche_CondExp_Test.asp?test=2915 Evaluation of the effects of compounds on the activity of the human HIPK2 quantified by measuring the phosphorylation of the substrate Ulight- […]
-amide (MBP) using a human recombinant enzyme and the […]
mixture is incubated for 30 min at room temperature. […] After 60 more min, the fluorescence transfer is measured at λex=337 nm, λem=620 nm and λem=665 nm using a microplate reader (Envision, Perkin Elmer). The enzyme activity is determined by dividing the signal measured at λem=665 nm by that measured at λem=620 nm (ratio). The results are expressed as a percent inhibition of the control enzyme activity. […]

[2] = biological target: T2, human ALK kinase (Homo sapiens, UniProt Q9UM73); assay: Human ALK kinase in vitro inhibition assay (Cerep, LANCE); format: biochemical; details: human recombinant enzyme, 10 µM ATP
T2 construct: purchased Cerep (CRO that ran the assay) 2678 (768-alk)
Description: as §1
Human CDC7 kinase in vitro inhibition assay
All details for the CDC7 in vitro assay can be consulted in the Cerep Catalogue available online under references 2764 (749-cdc7): […]
http://www.cerep.fr/cerep/users/pages/catalog/Affiche_CondExp_Test.asp?test=2764 Evaluation of the effects of compounds on the activity of the human CDC7/ASK quantified by measuring the phosphorylation of the substrate […]
Ulight-[…] […]
labeled with europium chelate is added. After 60 more min, the fluorescence transfer is measured at λex=337 nm, λem=620 nm and λem=665 nm using a microplate reader (Envision, Perkin Elmer). The enzyme activity is determined by dividing the signal measured at λem=665 nm by that measured at λem=620 nm (ratio). The results are expressed as a percent inhibition of the control enzyme activity. […]
ALK quantified by measuring the phosphorylation of the substrate Ulight- […]
europium chelate is added. After 60 more min, the fluorescence transfer is measured at […]
λex=337 nm, λem=620 nm and λem=665 nm using a microplate reader (Envision, […]

[3] = test system: STAT3 phosphorilation; parameters: method as in PMID 22678161; details: at 5 µM; cited from earlier work
[4] = 40 mg single daily dose; cited from earlier work

T1 sequence (Q9H2X6 whole entry): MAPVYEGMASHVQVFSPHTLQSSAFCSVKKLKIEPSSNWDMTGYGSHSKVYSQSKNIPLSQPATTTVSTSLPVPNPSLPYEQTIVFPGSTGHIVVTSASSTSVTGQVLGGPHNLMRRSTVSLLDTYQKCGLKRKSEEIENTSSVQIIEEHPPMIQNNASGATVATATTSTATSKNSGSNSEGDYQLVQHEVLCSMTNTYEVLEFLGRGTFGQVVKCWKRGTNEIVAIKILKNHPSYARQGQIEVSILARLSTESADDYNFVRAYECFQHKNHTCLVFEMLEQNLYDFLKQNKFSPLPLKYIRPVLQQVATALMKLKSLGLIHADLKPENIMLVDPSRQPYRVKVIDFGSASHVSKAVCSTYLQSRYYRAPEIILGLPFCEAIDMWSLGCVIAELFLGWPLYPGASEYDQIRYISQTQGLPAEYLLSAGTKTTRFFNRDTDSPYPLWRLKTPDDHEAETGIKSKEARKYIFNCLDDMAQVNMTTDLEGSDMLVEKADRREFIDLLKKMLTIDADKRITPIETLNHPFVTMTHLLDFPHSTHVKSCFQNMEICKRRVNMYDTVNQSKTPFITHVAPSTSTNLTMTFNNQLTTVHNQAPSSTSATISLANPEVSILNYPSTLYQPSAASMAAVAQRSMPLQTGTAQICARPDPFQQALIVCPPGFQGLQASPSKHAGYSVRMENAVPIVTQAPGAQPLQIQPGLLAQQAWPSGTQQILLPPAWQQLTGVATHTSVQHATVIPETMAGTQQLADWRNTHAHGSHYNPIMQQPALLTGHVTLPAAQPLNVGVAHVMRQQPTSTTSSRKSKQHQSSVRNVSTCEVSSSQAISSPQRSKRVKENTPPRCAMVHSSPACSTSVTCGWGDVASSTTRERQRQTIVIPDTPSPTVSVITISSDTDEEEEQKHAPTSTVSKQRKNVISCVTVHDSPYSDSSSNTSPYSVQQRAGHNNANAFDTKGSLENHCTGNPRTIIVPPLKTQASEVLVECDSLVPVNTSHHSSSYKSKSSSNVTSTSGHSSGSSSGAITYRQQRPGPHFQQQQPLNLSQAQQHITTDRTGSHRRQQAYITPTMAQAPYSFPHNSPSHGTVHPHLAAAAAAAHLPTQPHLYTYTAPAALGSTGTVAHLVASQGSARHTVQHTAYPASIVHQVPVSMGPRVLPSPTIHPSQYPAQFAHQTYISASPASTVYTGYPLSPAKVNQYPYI
T2 sequence (Q9UM73 19-1620): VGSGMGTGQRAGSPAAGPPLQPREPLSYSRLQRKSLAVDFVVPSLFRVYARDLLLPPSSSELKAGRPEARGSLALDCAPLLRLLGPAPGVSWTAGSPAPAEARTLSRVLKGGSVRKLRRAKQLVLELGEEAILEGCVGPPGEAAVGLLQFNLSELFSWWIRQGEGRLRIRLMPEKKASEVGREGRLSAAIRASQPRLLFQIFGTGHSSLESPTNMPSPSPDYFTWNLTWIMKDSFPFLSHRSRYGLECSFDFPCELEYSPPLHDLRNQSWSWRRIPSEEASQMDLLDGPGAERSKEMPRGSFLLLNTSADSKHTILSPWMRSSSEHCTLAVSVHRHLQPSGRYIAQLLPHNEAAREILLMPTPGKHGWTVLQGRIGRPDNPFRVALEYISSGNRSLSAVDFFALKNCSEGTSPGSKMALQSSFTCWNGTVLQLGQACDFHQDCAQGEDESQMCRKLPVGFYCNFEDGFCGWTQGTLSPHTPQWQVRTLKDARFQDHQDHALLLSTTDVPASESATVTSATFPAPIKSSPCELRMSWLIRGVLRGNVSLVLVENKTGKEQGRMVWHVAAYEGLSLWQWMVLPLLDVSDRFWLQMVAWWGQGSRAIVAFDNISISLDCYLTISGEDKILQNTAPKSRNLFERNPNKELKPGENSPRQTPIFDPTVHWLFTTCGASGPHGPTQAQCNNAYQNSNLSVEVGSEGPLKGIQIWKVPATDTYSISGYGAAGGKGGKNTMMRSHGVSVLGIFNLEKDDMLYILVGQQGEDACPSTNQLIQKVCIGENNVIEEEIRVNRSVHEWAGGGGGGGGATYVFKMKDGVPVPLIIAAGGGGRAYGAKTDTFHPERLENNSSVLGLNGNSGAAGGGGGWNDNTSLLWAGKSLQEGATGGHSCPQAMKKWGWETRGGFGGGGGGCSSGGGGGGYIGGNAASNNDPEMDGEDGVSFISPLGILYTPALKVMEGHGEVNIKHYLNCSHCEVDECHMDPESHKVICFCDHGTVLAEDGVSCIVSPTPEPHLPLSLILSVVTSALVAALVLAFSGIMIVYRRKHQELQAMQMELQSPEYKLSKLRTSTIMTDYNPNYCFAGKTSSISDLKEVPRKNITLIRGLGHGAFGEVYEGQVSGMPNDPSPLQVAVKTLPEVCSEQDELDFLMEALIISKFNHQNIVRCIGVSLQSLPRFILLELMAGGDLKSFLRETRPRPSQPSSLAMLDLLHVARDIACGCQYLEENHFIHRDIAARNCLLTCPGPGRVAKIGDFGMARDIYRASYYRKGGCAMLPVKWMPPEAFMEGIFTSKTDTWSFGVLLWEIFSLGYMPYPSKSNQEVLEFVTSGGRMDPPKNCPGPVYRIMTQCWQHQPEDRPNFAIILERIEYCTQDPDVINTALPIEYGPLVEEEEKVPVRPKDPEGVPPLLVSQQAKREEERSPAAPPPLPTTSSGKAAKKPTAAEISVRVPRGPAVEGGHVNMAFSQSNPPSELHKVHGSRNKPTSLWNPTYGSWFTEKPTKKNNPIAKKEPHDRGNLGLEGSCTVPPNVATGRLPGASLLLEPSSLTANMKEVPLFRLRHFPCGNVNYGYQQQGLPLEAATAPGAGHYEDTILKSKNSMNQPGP

IC50 [1]: 4.4 µM
IC50 [2]: 18 µM
Structure (SMILES): CNCc1ccc(-c2[nH]c3cc(F)cc4c3c2CCNC4=O)cc1 [rucaparib]
effect on STAT3 phosphorilation [3]: inhibit STAT3 phosphorilation
highest peak plasma concentration [4]: around 2 µM
